Consider ten compounds from patent US6432446B1, “Non-arrhythmogenic metabolite of oxybutynin” (Bridge Pharma, Inc., priority 2000, dated 2002).

In series [1] the test system is Male guinea pigs. Nature of the series: Cardiac side effects: QTc interval of the EKG in anesthetized guinea pigs. Type of series: in vivo, guinea pig. Conditions: intravenous infusion over 30 min. On the procedure: Male guinea pigs (450-600 g) are anesthetized with freshly prepared dialurethane sodium. The jugular vein is catheterized for iv administration of test drugs and the trachea is exposed and cannulated. Subdermal electrodes are positioned for Lead II electrocardiogram recording, monitored on a Grass Polygraph recorder, set at a paper speed of 50 nmmsec. The animals are allowed to stabilize for 30 minute after completion of surgery, and three baseline EKG recordings are then made at 10-minute intervals. The animals are then given a dose of the test compound or vehicle as an intravenous inflision over 30 min. EKG recordings are used to determine QT intervals and heart rates. To compensate for variations in heart rates, QTc intervals are calculated from QT- and RR-intervals as known to those skilled in the art. Prolongation of QTc is indicative of a prolonged action potential, caused by an inhibition of the delayed rectifier potassium channel. Prolongation of QTc is the known cause of Torsades de Pointes ventricular fibrillation by drugs such as terfenadine and astemizole (now withdrawn from the market).

In series [2] the test system is patients with conditions characterized by involuntary bladder contractions. The following applies: clinical studies; cited from earlier work.
For series [3] the following is noted: isomers of racemic oxybutynin; cited from earlier work.
Series [4] deals with Strips of intestinal smooth muscle tissue. As for the experimental part: 2. Functional Characterization of Antimuscarinic/Antispasmodic Activity.
Strips of intestinal smooth muscle tissue are removed from the body of male Hartley guinea pigs weighing 400-600 g. The strips are suspended in an oxygenated buffer of the following composition, in mM: NaCl, 133; KCl, 4.7; CaCl2, 2.5; MgSO4, 0.6; NaH2PO4, 1.3; NaHCO3, 16.3; and glucose, 7.7, or a similar balanced physiological solution. They are maintained at constant temperature. Contractions are recorded with isometric transducers (Model FT-10) on an ink-writing polygraph.
In each experiment up to seven strips are removed from a single animal, suspended in individual tissue chambers and allowed to equilibrate with the bathing solution for one hour before proceeding with the experiment.
In order to assess the viability of each tissue and to serve as a frame of reference, contractions of each strip of tissue are recorded initially in response to exposure to a tissue medium in which the NaCl was replaced by KCl to yield a concentration of 137.7 mM KCl in the medium. […] Then, leaving one strip untreated and/or one strip exposed to the test solution to serve as control tissue(s), the remaining strips each are exposed for one hour to one concentration of an antagonist. Finally, the responses to increasing concentrations of carbachol followed by exposure to 137.7 mM KCl are recorded a second time. To determine whether antagonists decrease the peak response to agonists, the peak tension developed by each strip during the second set of determinations is expressed as a percent of the peak tension developed during the first concentration-effect determination. Then, for each antagonist the resultant data are analyzed using standard statistical methodology.

For series [5] the following is noted: drugs withdrawn from the market because of this side effect; cited from earlier work.
A short description of series [6]: Risk for torsades des pointes of drugs combined with oxybutynin.
In series [7] the test system is human recombinant muscarinic receptor subtypes. Nature of the series: Ligand binding studies: muscarinic receptors. The following applies: compared with the des-ethyl metabolite. On the procedure:
1. Ligand Binding Studies: Muscarinic Receptors.
The experiments are carried out on membranes prepared from SF9 cells infected with baculovirus to express human recombinant muscarinic receptor subtypes. After incubation with the test article and the proper radioligand and washing, bound radioactivity is determnined with a liquid scintillation counter, using a commercial scintillation cocktail. The specific radioligand binding to each receptor is defined as the difference between total binding and nonspecific binding determined in the presence of an excess of unlabelled ligand. IC50 values (concentrations required to inhibit 50% of specific binding) are determined by non linear regression analysis of the competition curves. These parameters are obtained by curve fitting using Sigmaplot software.

The test system of series [8] is benzothiazepine receptors. Put plainly: Affinity for benzothiazepine receptors. The series is classed as binding. Conditions: compared with the des-ethyl metabolite.

As to `CCNCC#CCOC(=O)C(O)(c1ccccc1)C1CCCCC1` (racemic) [desethyl metabolite of oxybutynin, 4-ethylamino-2-butynyl cyclohexyl-phenylglycolate], in series [1], the “prolongation of the QTc-interval of the EKG” value is listed as “free from said cardiac side effect”.

With `CCN(CC)CC#CCOC(=O)C(O)(c1ccccc1)C1CCCCC1` (racemic) [oxybutynin, 4-diethylamino-2-butynyl cyclohexylphenylglycolate], the “prolongation of the QTc-interval of the EKG” value in series [1] is “causes a prolongation of the QTc-interval”. For the same compound, in series [2], the bladder capacity entry is “increases bladder capacity”, the “frequency of involuntary contractions of the detrusor muscle” value is reported as “diminishes the frequency of involuntary contractions of the detrusor muscle” and the “initial desire to void” value is listed as “delays the initial desire to void”.

For `CCN(CC)CC#CCOC(=O)[C@](O)(c1ccccc1)C1CCCCC1` (single isomer, unassigned) [R(−)-isomer, R(−)-oxybutynin], the anticholinergic activity entry in series [3] is recorded as “practically all of the anticholinergic activity of OXY resides in the R(−)-isomer”. In addition, the “prolongation of the QTc-interval of the EKG” value in series [1] is “cause a prolongation of the QTc-interval”.

For the compound `CCNCC#CCOC(=O)[C@](O)(c1ccccc1)C1CCCCC1` (single isomer, unassigned) [R-isomer of the des-ethyl metabolite of oxybutynin], the “antimuscarinic / anticholinergic activity” value in series [4] is recorded as “potent antimuscarinic agent”.

As for `CCN(CC)CC#CCOC(=O)[C@@](O)(c1ccccc1)C1CCCCC1` (single isomer, unassigned) [S(+)-isomer, S(+)-oxybutynin], the spasmolytic activity entry in series [3] is given as “direct spasmolytic activity”. Besides, the “prolongation of the QTc-interval of the EKG” value in series [1] is reported as “cause a prolongation of the QTc-interval”.

For the compound `CCNCC#CCOC(=O)[C@@](O)(c1ccccc1)C1CCCCC1` (single isomer, unassigned) [S-isomer of the des-ethyl metabolite of oxybutynin], in series [4], the “antimuscarinic / anticholinergic activity” value is “weak anticholinergic activity” and the spasmolytic activity entry is reported as “spasmolytic agent”.

Take `COc1ccc(CCN2CCC(Nc3nc4ccccc4n3Cc3ccc(F)cc3)CC2)cc1` [astemizole]: the “prolongation of QTc” value in series [5] is listed as “found to cause prolongation of QTc”.

As for `CC(=O)N1CCN(c2ccc(OCC3COC(Cn4ccnc4)(c4ccc(Cl)cc4Cl)O3)cc2)CC1` (stereo not drawn) [ketoconazole], in series [6], the “risk for torsades des pointes” value is on record as “further increase the risk for torsades des pointes”.

For `CC(CC(c1ccccc1)c1ccccc1)NC(C)(C)C` (stereo not drawn) [terodiline], in series [5], the “prolongation of QTc” value is “found to cause prolongation of QTc”.

In the case of “didesethyloxybutynin [didesethyl metabolite]”, the “affinity for muscarinic receptors” value in series [7] is listed as “somewhat lower affinity”. The “prolongation of the QTc-interval of the EKG” value in series [1] was “does not prolong the QTc interval”. Also, the “affinity for benzothiazepine receptors” value in series [8] is “somewhat lower affinity”.
